Source: article PMC8080777, “Discovery, optimization, and evaluation of non-bile acid FXR/TGR5 dual agonists” (Scientific Reports, 2021)

Tests used:
TGR5 = target: T1, TGR5 (Homo sapiens, UniProt Q8TDU6); assay: TGR5 cAMP assay in CHO cells transfected with TGR5 (cAMP Hunter eXpress, Discover X); format: cell-based
T1 construct: host or cells: CHO cells
T1 sequence (Q8TDU6 1-330): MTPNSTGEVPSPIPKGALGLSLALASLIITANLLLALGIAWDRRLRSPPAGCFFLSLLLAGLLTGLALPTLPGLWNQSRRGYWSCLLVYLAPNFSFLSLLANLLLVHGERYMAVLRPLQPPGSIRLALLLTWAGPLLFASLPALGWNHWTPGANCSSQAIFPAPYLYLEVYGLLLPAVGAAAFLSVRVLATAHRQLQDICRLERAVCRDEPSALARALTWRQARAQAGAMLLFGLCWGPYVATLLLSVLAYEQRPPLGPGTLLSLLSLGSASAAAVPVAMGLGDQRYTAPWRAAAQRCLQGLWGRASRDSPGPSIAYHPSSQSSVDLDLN
Procedure: TGR5 agonist activity was evaluated by transfecting CHO cells with TGR5 using the Discover X expression kit (cAMP Hunter eXpress GPCR Assay, Discover X Fremont, CA). Cells were incubated with test compounds for 0.5 h, and intracellular cAMP levels were measured using the multi-mode microplate reader.
(§1) TGR5 agonist activity was evaluated by transfecting CHO cells with TGR5 using the Discover X expression kit (cAMP Hunter eXpress Assay Kit, Discover X Fremont, CA, USA). Cells were incubated with the test compounds for 0.5 h, and intracellular cAMP levels were measured using Multi-Mode Microplate Reader (FlexStation 3, Molecular Devices Inc., San Jose, CA, USA).
Each compound was tested at concentrations of 10, 1, or 0.1 µM in duplicate (n = 2), with the average value shown.
S4. In vitro, in vivo assay, and selectvity. […]
In vitro TGR5 agonist assay protocol
as §1
Each compound was tested at concentrations of 10, 1, or 0.1 µM in duplicate (n=2), with the […]
parameter logistic equation, Y = min + (max - min)/(1 + 10^(n * (log10(EC50) - log10(conc)))), in […]

FXR = target: T2, FXR (Homo sapiens, UniProt Q96RI1); assay: CHO cell-based FXR luciferase reporter assay (Indigo Biosciences); conditions: for FXR Efficacy (%) (1 µM) / FXR Efficacy (%) (10 µM) / FXR Efficacy (%) (0.1 µM): % vs OCA 1 µM as 100%
T2 construct: host or cells: CHO cells
T2 sequence (Q96RI1 1-486): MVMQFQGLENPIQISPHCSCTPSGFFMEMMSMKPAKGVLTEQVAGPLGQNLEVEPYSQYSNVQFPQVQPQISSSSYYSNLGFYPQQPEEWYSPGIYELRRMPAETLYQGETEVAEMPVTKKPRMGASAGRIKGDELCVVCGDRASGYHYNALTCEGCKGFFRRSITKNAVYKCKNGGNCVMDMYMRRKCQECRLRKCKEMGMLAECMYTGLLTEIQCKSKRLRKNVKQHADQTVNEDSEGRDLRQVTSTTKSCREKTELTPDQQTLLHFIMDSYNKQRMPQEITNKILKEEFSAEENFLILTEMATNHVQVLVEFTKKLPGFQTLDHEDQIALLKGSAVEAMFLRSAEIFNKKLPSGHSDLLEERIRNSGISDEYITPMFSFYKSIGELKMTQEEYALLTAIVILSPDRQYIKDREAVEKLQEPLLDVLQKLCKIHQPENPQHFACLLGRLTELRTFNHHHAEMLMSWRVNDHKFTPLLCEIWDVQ
Procedure: To evaluate direct agonist activities against FXR, test compounds were evaluated using a CHO cell-based FXR assay by Indigo Biosciences (State College, PA), in which cells were transfected with an FXR luciferase reporter system.
To directly evaluate the in vitro agonist activity towards FXR, test compounds were evaluated in CHO cells transfected with FXR responsive luciferase reporter (Nuclear Receptor & In Vitro Toxicology Solutions, Indigo Biosciences, State College, PA, USA). […] Each compound was tested in duplicate, and the average value was reported[35],[36].
(§2) The cell recovery medium (CRM, Human Farnesoid X Receptor (NR1H4, FXR reporter assay system, Indigo Biosciences, State College, PA, USA) and compound screening medium (CSM, Human Farnesoid X Receptor (NR1H4, FXR reporter assay system, Indigo Biosciences, State College, PA, USA) were removed from the freezer and thawed in a water bath at 37 °C. Test compounds were dissolved in dimethyl sulfoxide (DMSO, FUJIFILM Wako Pure Chemical Corporation, Osaka city, Osaka, Japan), and the treatment medium was prepared and diluted with CSM to achieve a final concentration of 0.2% total DMSO. The reporter cells were thawed by transferring 3.3 mL CRM at 37 °C into tubes of frozen cells. The tube containing reporter cells was recapped, and it was immediately place in a 37 °C water bath for 5 min. The reporter cells were gently inverted several times, and 100 µL cell suspension was dispensed into each well. One hundred microliters of treatment media was added into wells. Subsequently, the assay plate was kept at 37 °C, and it was incubated with 5% CO2 for 22 h. To prepare luciferase detection reagent (LDR), the detection substrate was gently mixed with detection buffer, media contents were removed from each well, and 100 µL LDR was added to each well of the assay plate. The assay plate was allowed to rest at room temperature for 5 min, and luminescence was quantified using the Multi-Mode Microplate Reader (FlexStation 3, Molecular Devices Inc., San Jose, CA, USA)[36].
S4. In vitro, in vivo assay, and selectvity.
To directly evaluate the in vitro agonist activity towards FXR, test compounds were evaluated in CHO cells transfected with FXR responsive luciferase reporter (Nuclear Receptor & In Vitro Toxicology Solutions, Indigo Biosciences, State College, PA, USA). Cells were incubated with […]
(FlexStation 3, Molecular Devices Inc., San Jose, CA, USA). Efficacies are reported relative to […]
reporter on of 1 µM. Each compound was tested in duplicate, and the average value was […]
as §2, with “sulfoxide (DMSO ,” for “sulfoxide (DMSO,”, “Osaka, Jap an),” for “Osaka, Japan),”, “a 37°C” for “a 37 °C”, “5% CO 2” for “5% CO2”, “using […]” for “using the Multi-Mode Microplate Reader (FlexStation 3, Molecular Devices Inc., San Jose, CA, USA)[36].”

SMILES	TGR5 Efficacy (%) (10 µM) (TGR5; % vs INT-767 10 µM as 100%)	FXR Efficacy (%) (1 µM) (FXR)	TGR5 agonist activity (in words) (TGR5)	FXR agonist activity (in words) (FXR)	FXR Efficacy (%) (10 µM) (FXR)	FXR Efficacy (%) (0.1 µM) (FXR)	TGR5 Efficacy (%) (1 µM) (TGR5; 1 µM, % vs INT-767 10 µM as 100%)
Cc1cnccc1C(=O)N(Cc1ccc(-c2ccc(N(C)C)cc2)cc1)c1cc(Cl)cc(N2CCC2)c1 [Compound 13n]	10.2%	20.2%	–	–	–	–	–
Cc1cnccc1C(=O)N(Cc1ccc(-c2ccc(N(C)C)cc2)cc1)c1cc(Cl)cc(-c2cnn(C(C)C)c2)c1 [Compound 13o]	-1.5%	68.8%	–	–	–	–	–
Cc1cnccc1C(=O)N(Cc1ccc(-c2ccc(N(C)C)cc2)cc1)c1cc(Cl)ccc1C [Compound 13p]	93.4%	1.9%	good potency against TGR5	–	–	–	–
Cc1cnccc1C(=O)N(Cc1ccc(-c2ccc(N(C)C)cc2)cc1)c1cc(Cl)ccc1Cl [Compound 13q]	75.2%	1.5%	good potency against TGR5	–	–	–	–
Cc1cnccc1C(=O)N(Cc1ccc(-c2ccc(N(C)C)cc2)cc1)c1cc(Cl)cc(Cl)c1C [Compound 13r]	91.9%	8.6%	good potency against TGR5	–	–	–	–
Cc1cnccc1C(=O)N(Cc1ccc(-c2ccc(N(C)C)cc2)cc1)c1cccc(-c2cnn(C(C)C)c2)c1C [Compound 13s]	24.1%	61.0%	moderate FXR/TGR5 agonist activity	moderate FXR/TGR5 agonist activity	–	–	–
Cc1cnccc1C(=O)N(Cc1ccc(-c2ccc(N(C)C)cc2)cc1)c1cccc(-c2cnn(C(C)C)c2)c1F [Compound 13t]	8.3%	92.6%	–	strong FXR agonist activities	–	–	–
COC(=O)/C=C/c1cccc(N(Cc2ccc(-c3ccc(N(C)C)cc3)cc2)C(=O)c2ccncc2C)c1F [Compound 13u]	-2.5%	90.3%	–	strong FXR agonist activities	–	–	–
CCc1cnccc1C(=O)N(Cc1ccc(-c2ccc(N(C)C)cc2)cc1)c1cc(Cl)cc(Cl)c1 [Compound 13v]	65.3%	21.3%	–	–	–	–	–
CN(C)c1ccc(-c2ccc(CN(C(=O)c3ccncc3C3CC3)c3cc(Cl)cc(Cl)c3)cc2)cc1 [Compound 13w]	73.1%	22.7%	–	–	–	–	–
CN(C)c1ccc(-c2ccc(CN(C(=O)c3ccncc3Cl)c3cc(Cl)cc(Cl)c3)cc2)cc1 [Compound 13x]	9.8%	62.1%	–	–	–	–	–
CN(C)c1ccc(-c2ccc(CN(C(=O)c3ccncc3Br)c3cc(Cl)cc(Cl)c3)cc2)cc1 [Compound 13y]	-2.0%	51.6%	–	–	–	–	–
CN(C)c1ccc(-c2ccc(CN(C(=O)c3ccncc3C(F)(F)F)c3cc(Cl)cc(Cl)c3)cc2)cc1 [Compound 13z]	24.4%	10.6%	–	–	–	–	–
Cc1cnccc1C(=O)N(C[C@H]1CC[C@H](c2ccccc2)CC1)c1cc(Cl)cc(Cl)c1 [Compound 20a]	22.3%	52.2%	–	–	–	–	–
Cc1cnccc1C(=O)N(C[C@H]1CC[C@H](c2ccc(N(C)C)cc2)CC1)c1cc(Cl)cc(Cl)c1 [Compound 20b]	31.1%	47.1%	–	–	106.8%	–	–
Cc1cccc([C@H]2CC[C@H](CN(C(=O)c3ccncc3C)c3cc(Cl)cc(Cl)c3)CC2)c1 [Compound 20c]	5.7%	51.7%	–	–	–	–	–
COc1ccc([C@H]2CC[C@H](CN(C(=O)c3ccncc3C)c3cc(Cl)cc(Cl)c3)CC2)cc1C [Compound 20d]	28.8%	55.2%	weak TGR5 agonist	partial FXR agonists	129.6%	–	–
COc1ccc([C@@H]2CC[C@@H](CN(C(=O)c3ccncc3C)c3cc(Cl)cc(Cl)c3)C(C)C2)cc1C (stereo partly shown) [Compound 20e]	33.9%	69.1%	weak TGR5 agonist	partial FXR agonists	72.6%	–	–
COc1ccc(C23CCC(CN(C(=O)c4ccncc4C)c4cc(Cl)cc(Cl)c4)(CC2)CC3)cc1C [Compound 20f]	28.8%	90.3%	weak TGR5 agonist	partial FXR agonists	64.3%	–	–
COc1ccc(C2C3CCC2CC(CN(C(=O)c2ccncc2C)c2cc(Cl)cc(Cl)c2)C3)cc1C (stereo not shown) [Compound 20g]	-5.2%	51.1%	–	–	–	–	–
COc1ccc(C23CCC(CN(C(=O)c4ccncc4C)c4cc(F)cc(Cl)c4)(CC2)CC3)cc1C [Compound 20i]	62.1%	89.2%	–	–	–	62.6%	–
CCc1cnccc1C(=O)N(CC12CCC(c3ccc(OC)c(C)c3)(CC1)CC2)c1cc(F)cc(Cl)c1 [Compound 20j]	71.1%	71.7%	–	–	–	13.5%	21.5%
Cc1cnccc1C(=O)N(CC12CCC(c3ccc4c(c3)CCO4)(CC1)CC2)c1cc(Cl)cc(Cl)c1 [Compound 20m]	72.4%	91.5%	–	–	–	58.5%	–
